Test results published in patent EP0304156A1, “Cyclohept b indolealkanoic acids” (MERCK FROSST CANADA INC., priority 1987, dated 1989).
Values after ≈ are worked out from the molar mass of the structure shown.

Tests used:
[1] = tested on: Human platelets; test: Inhibition of induced threshold aggregation of human platelets (agonist U44069); format: cell-based; settings: human platelet rich plasma, aggregating agent U44069; read-out: Inhibition of platelet aggregation (IC50 in mg/ml)
Procedure: Inhibition of Induced Threshold Aggregation of Human Platelets
Human platelet rich plasma (PRP) is prepared from venous blood of male volunteers who have taken no medication for ten days prior to test. Blood is transferred into plastic centrifuge tubes containing 3.8% Trisodium Citrate in 0.9% NaCl (in a ratio of blood to anticoagulant of 9:1), mixed by gentle inversion, and centrifuged at room temperature for ten minutes at 116 g. The supernatant (PRP) is transferred into plastic tubes. Platelet poor plasma (PPP) is obtained by centrifuging the residual blood cells at 4000 g for ten minutes. PRP is left to stand at least one half hour prior to testing.
Platelet Aggregation is measured using a Payton Aggregometer and Recorder. Following calibration of the instrument, a cuvette containing PRP (225 microliters) is incubated for three minutes at 37°C. Drug vehicle (control), or a drug concentration is then added in a volume of 0.5 microliter. After one minute, the aggregating agent (U44069, 9,11-dideoxy-9a,11a-epoxymethano PGF2a) is added to the cuvette in a volume of 25 microliters. Recording is continued until the maximal response is obtained.
The threshold (approximately 20 - 30% of maximum) aggregation concentration of the agonist to be used is first determined in the presence of the drug vehicle (control). Test compounds are then assayed at 10 or 30 micrograms/ml initially, and if active, are further tested in order to determine the concentration range at which 20-80% of the threshold aggregatory response is inhibited. All drugs are dissolved in dimethylsulfoxide.
The height of the aggregation response (measured in divisions of the recorder paper, 1 division = 2.5 mm) in the presence of the drug is recorded, and calculated as percent inhibition of the mean height of the control threshold responses. The IC₅₀ (drug concentration which inhibits 50% of the aggregatory response) is obtained by regression analysis.

[2] = tested on: Guinea Pig Tracheal Chain; test: Estimation of pA2 values in guinea pig tracheal chain (contractile agonist U-44069); parameters: species or system guinea pigs; settings: for Kb: Cavia porcellus, 5 min, guinea pig tracheal chain, agonist U-44069
Text: Estimation of pA₂ Values in Guinea Pig Tracheal Chain
Male albino Hartley strain guinea pigs (300-350 gm) were sacrificed by a blow to the head and exsanguinated. The trachea was removed, freed of extraneous tissue and sectioned into rings of 1-2 mm thickness. Five rings were tied together in series, ensuring that the tracheal muscle lay in the same vertical plane, and the cartilage of each ring then separated at a point directly opposite the muscle. The chains were suspended under 1 gm resting tension in modified Krebs solution (NaCl, 6.87; NaHCO₃, 2.1; dextrose, 2.1; KCl, 0.32; CaCl₂, 0.28; MgSO₄, 7H₂O, 0.11; KH₂PO₄, 0.16; gm/L: equilibrated with 5% CO₂ in O₂ for 1 hour) containing indomethacin (1.4 x 10-⁵M) to suppress endogenous protaglandin synthesis, Organ bath temperature was maintained at 37°C and 5% CO₂ in O₂ diffused continously. Isometric tension changes were recorded from a Gould-Statham (UTC 2) force displacement transducer connected to a Beckman Type R Dynograph. For assay purposes initial maximal contractions were elicited with a high concentration of the contractile agonist [U-44069, 9.11-dideoxy-9a,11a-epoxymethano PGF2a] and the tissue sub sequently washed at intervals until tension returned to baseline. Agonist dose response curves were obtained using a cumulative-dose schedule (4-8 doses) and the preparations then washed at regular intervals until baseline tension was recorded. After an appropriate interval (1-1.5 hrs) agonist dose response curves were repeated in the presence of antagonist drug concentrations. […] EC₅₀ values were obtained by regression analysis and used to calculate 'apparent' and Schild Plot pA₂ values by the method of Tallarida and Murray 1981.

[3] = relative to compound 2 (so in the source)

Row | SMILES | IC50 [1] [µg/mL] | Kb [2] [nM] | pA2 lower than that of compound 2 [2, 3] [log units] | potency factor corresponding to the pA2 difference [2, 3]
1 | O=C(O)CC1CCCc2c(n(Cc3ccc(Cl)cc3)c3ccc(F)cc23)C1 (stereo not shown) [Compound 1, 2-Fluoro-5-(p-chlorobenzyl)-5,6,7,8,9,10-hexahydrocyclo hept[b]indole-7-acetic acid] | 0.05 (≈ 0.13 µM) | 3.16 |  | 
2 | O=C(O)CC1CCCCc2c1c1cc(F)ccc1n2Cc1ccc(Cl)cc1 (stereo not shown) [Compound 2, 2-Fluoro-5-(p-chlorobenzyl)-5,6,7,8,9,10-hexahydrocyclo hept[b]indole-10-acetic acid] | 4.5 (≈ 11.7 µM) | 42.7 |  | 
3 | O=C(O)C1CCCc2c(n(Cc3ccc(Cl)cc3)c3ccc(F)cc23)C1 (stereo not shown) [Compound 3, 2-Fluoro-5-(p-chlorobenzyl)-5,6,7,8,9,10-hexahydrocyclo hept[b]indole-7-carboxylic acid] | 7.46 (≈ 20.1 µM) | 129 |  | 
4 | O=C(O)CC1CCCCc2c1n(Cc1ccc(Cl)cc1)c1ccc(F)cc21 (stereo not shown) [Compound 4, 2-Fluoro-5-(p-chlorobenzyl)-5,6,7,8,9,10-hexahydrocyclohept[b]indole-6-acetic acid] | 0.015 (≈ 0.0389 µM) | 1.35 |  | 
5 | CS(=O)(=O)c1ccc(Cn2c3c(c4cc(F)cc(F)c42)CCCC(CC(=O)O)C3)cc1 (stereo not shown) [Compound 36, 2,4-Difluoro-5(p-methylsulfonylbenzyl)-5,6,7,8,9,10-hexahydrocyclohept[b]indole-7-acetic acid] | 0.012 (≈ 0.0268 µM) | 8.32 |  | 
6 | COc1ccc2c(c1)c1c(n2Cc2ccc(Cl)cc2)CC(CC(=O)O)CC1 (stereo not shown) [Compound A, reference compound] | 3.5 (≈ 9.12 µM) | 158 | 1.7 | 15
7 | COc1ccc2c(c1)c1c(n2Cc2ccc(Cl)cc2)CC(C(=O)O)CC1 (stereo not shown) [Compound B, reference compound] | > 30 | 158 |  | 
